ChEMBL document CHEMBL1201862, “PubChem BioAssay data set” (2004)
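All cell lines were grown in 96-well plates and treated with compound for 48 hours. Abbreviation: GI50, concentration required for 50% inhibition of growth.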 Activity calls are given as the source filed them. Cut-off read from the data, not from the text of the source: active = GI50 up to about 1.1 µM and inactive = higher.

Tests used:
Experiment in all cases: growth of human tumour cells (NCI), 48 h
[1] = tested on: DU-145
[2] = tested on: SN12C
[3] = tested on: TK-10
[4] = tested on: A549
[5] = tested on: NCI-H23
[6] = tested on: HL-60
[7] = tested on: T47D
[8] = tested on: RXF 393
[9] = tested on: CAKI-1
[10] = tested on: MDA-MB-435
[11] = tested on: MDA-MB-231
[12] = tested on: SF-268
[13] = tested on: EKVX
[14] = tested on: IGROV-1
[15] = tested on: A498
[16] = tested on: NCI-H460
[17] = tested on: M14
[18] = tested on: HCT-15
[19] = tested on: MOLT-4
[20] = tested on: BT-549

Row | SMILES | GI50 [1] | GI50 [2] | GI50 [3] | GI50 [4] | GI50 [5] | GI50 [6] | GI50 [7] | GI50 [8] | GI50 [9] | GI50 [10] | GI50 [11] | GI50 [12] | GI50 [13] | GI50 [14] | GI50 [15] | GI50 [16] | GI50 [17] | GI50 [18] [µM] | GI50 [19] | GI50 [20]
1 | N/C(=N\N=C\c1c[nH]c2ccccc12)Nc1ccccc1 | 0.314 µM (active) | 0.535 µM (active) | 1.28 µM (inactive) | 0.455 µM (active) | 0.308 µM (active) | 0.144 µM (active) | 1.36 µM (inactive) | 0.156 µM (active) | 0.519 µM (active) | 0.02 µM (active) | 0.624 µM (active) | 0.573 µM (active) | 2.92 µM (inactive) | 0.865 µM (active) | 0.256 µM (active) | 0.251 µM (active) | 0.11 µM (active) | 0.318 | 0.938 µM (active) | 0.527 µM (active)
2 | CC(C)(C)OC(=O)NC(CCC(=O)OCc1ccccc1)C(=O)NCCCO (stereo not given) | > 100 µM (inactive) | > 100 µM (inactive) | > 100 µM (inactive) | > 100 µM (inactive) | > 100 µM (inactive) | > 100 µM (inactive) | > 100 µM (inactive) | > 100 µM (inactive) | > 100 µM (inactive) | > 100 µM (inactive) | > 100 µM (inactive) | > 100 µM (inactive) | > 100 µM (inactive) | > 100 µM (inactive) | > 100 µM (inactive) | > 100 µM (inactive) | > 100 µM (inactive) | > 100 | > 100 µM (inactive) | > 100 µM (inactive)
3 | COc1ccccc1/C=C/c1cnccn1 | > 10 µM (inactive) | > 10 µM (inactive) | > 10 µM (inactive) | > 10 µM (inactive) | > 10 µM (inactive) | > 10 µM (inactive) | > 10 µM (inactive) | > 10 µM (inactive) | > 10 µM (inactive) | > 10 µM (inactive) | > 10 µM (inactive) | > 10 µM (inactive) | > 10 µM (inactive) | > 10 µM (inactive) | > 10 µM (inactive) | > 10 µM (inactive) | > 10 µM (inactive) | > 10 | > 10 µM (inactive) | > 10 µM (inactive)
